Test results published in PubChem BioAssay (NCI).
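96-well plates; 48 h exposure; 5 concentrations. Endpoints by linear interpolation between flanking doses. Not reached: highest tested concentration assigned. GI50 marks 50% less growth. At the TGI there is no net growth.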

Columns and labels:
Assay in all cases: NCI anticancer screen, dose series, 48 h
[1] = test system: NCI-H460 lung
[2] = test system: TK-10 renal
[3] = test system: UACC-62 melanoma
[4] = test system: HCT-116 colon
[5] = test system: M14 melanoma
[6] = test system: RPMI-8226 leukemia
[7] = test system: MDA-MB-435
[8] = test system: A498 renal
[9] = test system: SR leukemia
[10] = test system: MDA-MB-231 breast

SMILES | TGI [1] [µM] | TGI [2] [µM] | TGI [3] [µM] | TGI [4] [µM] | TGI [5] [µM] | TGI [6] [µM] | TGI [7] [µM] | TGI [8] [µM] | TGI [9] [µM] | TGI [10] [µM] | GI50 [6] [µM] | GI50 [7] [µM] | GI50 [1] [µM] | GI50 [3] [µM] | GI50 [8] [µM] | GI50 [4] [µM] | GI50 [5] [µM] | GI50 [10] [µM] | GI50 [2] [µM] | GI50 [9] [µM]
Cc1ccccc1NC(=O)c1cc(-c2ccc([N+](=O)[O-])cc2)nc(=S)[nH]1 | > 100 | > 100 | > 100 | > 100 | > 100 | – | – | – | – | – | – | – | – | – | – | – | – | – | – | –
O=C(O)c1ccc(CI)cc1 | 31.7 | – | 26.4 | 28.1 | 41.3 | 45.8 | 54.9 | 35.3 | 59.1 | 37.6 | – | – | – | – | – | – | – | – | – | –
CCCCCCCCOC(=O)CC[C@@H](C)[C@H]1CC[C@H]2[C@@H]3[C@H](OC(=O)CCN)C[C@@H]4C[C@H](OC(=O)CCN)CC[C@]4(C)[C@H]3C[C@H](OC(=O)CCN)[C@]12C | 10.6 | – | 12.7 | 5.43 | 22.9 | 33.6 | 18.4 | 48.1 | – | 7.9 | 8.42 | 3.96 | 3.18 | 3.45 | 23.8 | 2.43 | 4.61 | 2.44 | – | –
CCC[CH2][Sn]([Cl])([Cl])[CH2]CCC | 3.72 | 1.77 | 1.63 | 2.61 | 2.78 | 0.723 | – | – | 1.21 | – | 0.198 | – | 1.75 | 0.429 | – | 1.17 | 1.14 | – | 0.569 | 0.296
O=S(=O)(NCCNc1nccc(-c2c(-c3ccc(F)c(O)c3)nc3sccn23)n1)c1ccc(F)cc1 | 17.2 | 96.7 | 9.82 | – | 16.5 | 4.24 | 4.99 | 18.2 | > 100 | > 100 | 1.78 | 0.824 | 3.43 | 0.587 | 5.72 | – | 0.364 | 2.23 | 16.2 | 1.34
O=C(O)c1ccc(NCn2nc(-c3ccccc3O)oc2=S)cc1 | > 100 | > 100 | 97.7 | 57.3 | > 100 | > 100 | > 100 | – | – | 58.5 | > 100 | > 100 | 40.5 | 34.1 | – | 23.7 | 53.5 | 16.1 | > 100 | –
CC1=Nc2c(ccc3c2C(=O)c2ccccc2C3=O)NC(c2cccc3c2CCC3)C1 (stereo not drawn) | > 100 | > 100 | > 100 | > 100 | > 100 | > 100 | – | > 100 | > 100 | – | – | – | – | – | – | – | – | – | – | –
CC1=C[C@H]2c3c([nH]c4ccccc34)C(c3c[nH]c4ccccc34)[C@H]2CC1 (stereo partly drawn) | 8.21 | 28.5 | 23.1 | 11.9 | 19.2 | 12 | – | 35.8 | – | – | – | – | – | – | – | – | – | – | – | –
O=C(Cc1nc2ccccc2c(=O)n1-c1ccccc1Cl)c1ccncc1 | > 100 | > 100 | > 100 | > 100 | > 100 | – | – | > 100 | – | – | – | – | – | – | – | – | – | – | – | –
COC12CCC(=O)C=C1c1ccccc1N2C(C)=O (stereo not drawn) | > 100 | – | > 100 | > 100 | – | > 100 | – | > 100 | > 100 | – | – | – | – | – | – | – | – | – | – | –
COC(=O)C1C(O)CCC2CN3CCc4c([nH]c5ccccc45)C3CC21 (stereo not drawn) | > 100 | > 100 | > 100 | > 100 | > 100 | > 100 | > 100 | > 100 | – | > 100 | – | – | – | – | – | – | – | – | – | –
Cc1nn[n-]n1.N.N.N.N.N.[Cl-].[Co+3] | > 100 | > 100 | > 100 | > 100 | > 100 | > 100 | – | – | > 100 | – | > 100 | – | > 100 | > 100 | – | > 100 | > 100 | – | > 100 | > 100
CC1=C(C(=O)CC(=O)C(=O)Nc2cc(C)ccc2C)Sc2ccccc2N1 | – | > 100 | > 100 | > 100 | > 100 | > 100 | – | – | – | – | – | – | – | – | – | – | – | – | – | –
OCc1ccc(N2CCc3cccc(F)c3C2)cc1Cl | 1.23 | – | – | 14.6 | > 78.7 | 20.5 | 51.8 | 0.0405 | 58.8 | 43.5 | – | 19.5 | < 0.0194 | – | < 0.0145 | < 0.0104 | 29.3 | 13.4 | – | 19.3
CCCNC(=O)C1C(=O)C(=O)N(CCC)C1=O (stereo not drawn) | > 100 | > 100 | > 100 | > 100 | > 100 | > 100 | – | > 100 | – | – | – | – | – | – | – | – | – | – | – | –
CC1/C=C/[C@@]2(C)CCC(C(C)(C)O)C2C(O)C[C@](C)(O)/C=C/C1 (stereo partly drawn) | > 100 | > 100 | > 100 | > 100 | > 100 | > 100 | – | > 100 | > 100 | – | – | – | – | – | – | – | – | – | – | –
CC(=O)N/N=C1\CC(C)(C)C2CCC1C2 (stereo not drawn) | > 100 | > 100 | > 100 | > 100 | > 100 | > 100 | – | > 100 | – | – | – | – | – | – | – | – | – | – | – | –
CC(=O)c1ccc2c(c1)C1C=CCC1[C@H](c1cc3c(cc1Br)OCO3)N2 (stereo partly drawn) | 4.81 | 37.1 | > 31.1 | 14.3 | 5.38 | 13.2 | – | 2.14 | 6.15 | 11.4 | 0.58 | – | 0.954 | 1.46 | 0.482 | 1.18 | 0.765 | 1.3 | 2.04 | 0.519
CCC(=O)c1c(NOC2OCC(OC(C)=O)C(OC(C)=O)C2OC(C)=O)nc(OC)n(C)c1=O (stereo not drawn) | > 100 | > 100 | > 100 | > 100 | > 100 | > 100 | – | > 100 | > 100 | – | – | – | – | – | – | – | – | – | – | –
O=C1c2ccccc2-[n+]2ccc3c([nH]c4ccccc43)c21 | 1.43 | 2.72 | 0.699 | 0.51 | 0.365 | 0.468 | 0.329 | 3.15 | 0.846 | – | – | – | – | – | – | – | – | – | – | –
O=c1c2cc(F)ccc2sc2c(N3CCNCC3)nc3ccc(F)cc3c12 | 3.12 | 3.47 | 3.19 | 3.21 | 3.66 | 4.89 | 3.2 | 3.09 | – | 2.79 | 2.16 | 1.74 | 1.59 | 1.74 | 1.67 | 1.63 | 1.94 | 1.42 | 1.94 | –
